Columns and labels:
anergic human T-cells = assay: Anergic T-cell activation assessed by IFNγ secretion (ionomycin-induced anergy); type: cell-based; details: anergic T-cells re-challenged with anti-CD3 and anti-CD28 for 24 hours, read-out: IFNγ Fold change from baseline
Text: Peripheral blood mononuclear cells (PBMC) were obtained either: 1) by using Ficoll-Paque™ (GE Healthcare) for separation of peripheral blood hematopoietic cells from buffy coats of healthy human donors; or 2) directly from LeukoPak donations. Total human primary T-cells were isolated from the PBMCs utilizing negative selection with commercial kits following the manufacturer's protocol (Miltenyi Catalog #130-096-535 (i.e., cocktail of antibodies against surface markers CD14, CD15, CD16, CD19, CD34, CD36, CD56, CD123 and CD235a were incubated with the PBMCs before passing the samples by magnetic beads for removal of cells expressing those surface markers) or StemCells Catalog #17951) to yield >95% CD3+ cells assessed by flow cytometry. The cells were activated with immobilized anti-CD3 antibody (OKT3) and soluble anti-CD28 antibody (28.2) for two days at which time they are washed and allowed to rest for three days in the absence of stimulation. They were then treated with ionomycin (Sigma) for 18-24 hours to induce anergy. Following two washes to remove the ionomycin from the samples, Cbl-b inhibitor compounds were added to the cells at the indicated concentrations (e.g. 10, 1.11 and 0.37 μM) and incubated for 1 hour. The cells were then re-challenged with anti-CD3 antibody and anti-CD28 antibody for 24 hours at which point cell free supernatants were collected and assessed for cytokines (e.g., IFNγ) by ELISA (R&D Systems or Peprotech) or Luminex multiplex kits (Procarta Life Technologies) following manufacturer's protocols.
Cbl-b inhibitors were tested to determine their ability to induce or enhance secretion of cytokines from anergic T-cells (e.g. IFNγ), which is indicative of decreased T-cell tolerance.
Readouts were reported as fold change over baseline. Baseline for this study was the measurement obtained from anergic human T-cells stimulated with immobilized anti-CD3 and soluble anti-CD28, wherein the T-cells were not incubated with a Cbl-b inhibitor (Table 7). For IFNγ changes greater than 2.5-fold over baseline were considered a positive response (Table 7). Compounds were ranked into bins according to their readout as follows for IFNγ: A indicates ≤2.50, B indicates 2.51-4.00 and C indicates >4.01.

T-cells = assay: In vivo activity: CD25 expression on CD4+ or CD8+ T-cells of mice stimulated with anti-CD3 antibody; details: 2 μg anti-CD3 antibody, 24 hours
How it was run: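 C57BL/6 or BALB/c mice dosed with inhibitor (IV, IP, SC or PO, e.g. BID or TID), then stimulated with 2 μg anti-CD3 antibody. Plasma IL-2, IFNγ, TNFα at 8 h and CD25 on CD4+/CD8+ T-cells by flow cytometry at 24 h; fold change over vehicle plus anti-CD3, binned A–E.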

T-cell = assay: IL-2 secretion from T-cells stimulated with anti-CD3 antibody alone (Biological Example 2); type: cell-based; details: primary human total T-cells, read-out: IL-2 secretion, Anti-CD3 stimulation, fold change over baseline; for fold induction at 1 µM: 1 μM compound; for fold induction at 8 µM: 8 μM compound

SMILES	fold induction at 0.37 µM (anergic human T-cells)	fold induction at 1.11 µM (anergic human T-cells)	fold induction at 10 µM (anergic human T-cells)	CD4+ T-cell % CD25+ (T-cells; 90 mpk PO BID)	CD8+ T-cell % CD25+ (T-cells; 90 mpk PO BID)	CD4+ T-cell % CD25+ (T-cells; 135 mpk PO BID)	CD8+ T-cell % CD25+ (T-cells; 135 mpk PO BID)	CD4+ T-cell % CD25+ (T-cells; 180 mpk PO BID)	CD8+ T-cell % CD25+ (T-cells; 180 mpk PO BID)	fold induction at 1 µM (T-cell)	fold induction at 8 µM (T-cell)	CD4+ T-cell % CD25+ (T-cells; 45 mpk PO BID)	CD8+ T-cell % CD25+ (T-cells; 45 mpk PO BID)	CD4+ T-cell % CD25+ (T-cells; 90 mpk IP BID)	CD8+ T-cell % CD25+ (T-cells; 90 mpk IP BID)
Cn1cnnc1CC1(c2cccc(N3Cc4c(cc(CN5CC(F)C5)cc4C(F)(F)F)C3=O)c2)COC1 [Compound 415, 6-((3-fluoroazetidin-1-yl)methyl)-2-(3-(3-((4-methyl-4H-1,2,4-triazol-3-yl)methyl)oxetan-3-yl)phenyl)-4-(trifluoromethyl)isoindolin-1-one]	2.51 to 4	2.51 to 4	> 4.01	D (D indicates 1.00-1.50)	D (D indicates 1.00-1.50)	D (D indicates 1.00-1.50)	E (E indicates <1.00)	D (D indicates 1.00-1.50)	E (E indicates <1.00)	0.151 to 0.2	> 0.201	–	–	–	–
Cn1cnnc1C(F)(F)[C@](C)(F)c1cccc(N2Cc3c(cc(N4CCNCC4)cc3C(F)(F)F)C2=O)c1 [Compound 442, (R)-6-(Piperazin-1-yl)-2-(3-(1,1,2-trifluoro-1-(4-methyl-4H-1,2,4-triazol-3-yl)propan-2-yl)phenyl)-4-(trifluoromethyl)isoindolin-1-one]	≤ 2.5	2.51 to 4	2.51 to 4	–	–	–	–	–	–	> 0.201	0.051 to 0.1	–	–	–	–
Cc1n[nH]c(C)c1-c1cc2c(c(C(F)(F)F)c1)CN(c1cccc(C3(Cc4nncn4C)COC3)c1)C2=O [Compound 385, 6-(3,5-dimethyl-1H-pyrazol-4-yl)-2-(3-{3-[(4-methyl-4H-1,2,4-triazol-3-yl)methyl]oxetan-3-yl}phenyl)-4-(trifluoromethyl)-2,3-dihydro-1H-isoindol-1-one]	≤ 2.5	≤ 2.5	> 4.01	–	–	–	–	–	–	0.101 to 0.15	> 0.201	–	–	–	–
C[C@H](Cc1nncn1C)c1cccc(N2Cc3c(cc(CN4CC(O)C4)cc3C(F)(F)F)C2=O)c1 [Compound 393, (R)-6-((3-hydroxyazetidin-1-yl)methyl)-2-(3-(1-(4-methyl-4H-1,2,4-triazol-3-yl)propan-2-yl)phenyl)-4-(trifluoromethyl)isoindolin-1-one]	≤ 2.5	2.51 to 4	> 4.01	–	–	–	–	–	–	> 0.201	> 0.201	–	–	–	–
C[C@H](Cc1nncn1C)c1cccc(N2Cc3c(cc(CN4CC(C)(O)C4)cc3C(F)(F)F)C2=O)c1 [Compound 397]	≤ 2.5	> 4.01	> 4.01	–	–	–	–	–	–	0.151 to 0.2	> 0.201	–	–	–	–
Cc1cc(C(=O)Nc2cccc(C3(Cc4nncn4C)COC3)c2)nc(C2CC2)n1 [Compound 336, 2-cyclopropyl-6-methyl-N-(3-(3-((4-methyl-4H-1,2,4-triazol-3-yl)methyl)oxetan-3-yl)phenyl)pyrimidine-4-carboxamide]	2.51 to 4	2.51 to 4	> 4.01	D (D indicates 1.00-1.50)	D (D indicates 1.00-1.50)	C (C indicates 1.51-2.00)	D (D indicates 1.00-1.50)	C (C indicates 1.51-2.00)	D (D indicates 1.00-1.50)	–	–	D (D indicates 1.00-1.50)	D (D indicates 1.00-1.50)	–	–
Cn1cnnc1C(F)(F)[C@](C)(F)c1cccc(N2Cc3c(cc(CN4CC[C@@H](C#N)C4)cc3C(F)(F)F)C2=O)c1 [Compound 455, (R)-1-((3-oxo-2-(3-((R)-1,1,2-trifluoro-1-(4-methyl-4H-1,2,4-triazol-3-yl)propan-2-yl)phenyl)-7-(trifluoromethyl)isoindolin-5-yl)methyl)pyrrolidine-3-carbonitrile]	≤ 2.5	2.51 to 4	> 4.01	–	–	–	–	–	–	0.151 to 0.2	> 0.201	–	–	–	–
Cn1cnnc1C(F)(F)[C@](C)(F)c1cccc(N2Cc3c(cc(CN4CC[C@@H](F)C4)cc3C(F)(F)F)C2=O)c1 [Compound 450]	2.51 to 4	2.51 to 4	> 4.01	–	–	–	–	–	–	> 0.201	> 0.201	–	–	–	–
C[C@H](Cc1nncn1C)c1cccc(N2Cc3c(cccc3C(F)(F)F)C2=O)c1 [Compound 255a, (R)-2-(3-(1-(4-methyl-4H-1,2,4-triazol-3-yl)propan-2-yl)phenyl)-4-(trifluoromethyl)isoindolin-1-one]	≤ 2.5	2.51 to 4	≤ 2.5	–	–	D (D indicates 1.00-1.50)	E (E indicates <1.00)	–	–	–	–	–	–	B (B indicates 2.01-2.50)	D (D indicates 1.00-1.50)
C[C@H](Cc1nncn1C)c1cccc(NC(=O)c2cccc(C(F)(F)F)n2)c1 [Compound 183a, (R)-N-(3-(1-(4-methyl-4H-1,2,4-triazol-3-yl)propan-2-yl)phenyl)-6-(trifluoromethyl)picolinamide]	≤ 2.5	2.51 to 4	≤ 2.5	–	–	–	–	–	–	–	–	–	–	D (D indicates 1.00-1.50)	D (D indicates 1.00-1.50)
Cc1cc(C(=O)Nc2cccc([C@H](C)Cc3nncn3C)c2)nc(C2CC2)n1 [Compound 195, (R)-2-cyclopropyl-6-methyl-N-(3-(1-(4-methyl-4H-1,2,4-triazol-3-yl)propan-2-yl)phenyl)pyrimidine-4-carboxamide]	≤ 2.5	≤ 2.5	≤ 2.5	D (D indicates 1.00-1.50)	D (D indicates 1.00-1.50)	D (D indicates 1.00-1.50)	D (D indicates 1.00-1.50)	C (C indicates 1.51-2.00)	D (D indicates 1.00-1.50)	–	–	–	–	–	–
C[C@H](Cc1nncn1C)c1cccc(N2Cc3c(cc(CN4CC[C@H](F)C4)cc3C(F)(F)F)C2=O)c1 [Compound 399, 6-(((S)-3-fluoropyrrolidin-1-yl)methyl)-2-(3-((R)-1-(4-methyl-4H-1,2,4-triazol-3-yl)propan-2-yl)phenyl)-4-(trifluoromethyl)isoindolin-1-one]	> 4.01	> 4.01	> 4.01	–	–	–	–	–	–	0.151 to 0.2	> 0.201	–	–	–	–
C[C@H](Cc1nncn1C)c1cccc(NC(=O)c2cc3cc(N4CCNCC4)ccc3cn2)c1 [Compound 472, N-{3-[(2R)-1-(4-methyl-4H-1,2,4-triazol-3-yl)propan-2-yl]phenyl}-6-(piperazin-1-yl)isoquinoline-3-carboxamide]	≤ 2.5	≤ 2.5	2.51 to 4	–	–	–	–	–	–	0.101 to 0.15	0.101 to 0.15	–	–	–	–
COC1CN(Cc2cc3c(c(C(F)(F)F)c2)CN(c2cccc([C@@](C)(F)C(F)(F)c4nncn4C)c2)C3=O)C1 [Compound 452, (R)-6-((3-methoxyazetidin-1-yl)methyl)-2-(3-(1,1,2-trifluoro-1-(4-methyl-4H-1,2,4-triazol-3-yl)propan-2-yl)phenyl)-4-(trifluoromethyl)isoindolin-1-one]	≤ 2.5	2.51 to 4	> 4.01	–	–	–	–	–	–	0.151 to 0.2	> 0.201	–	–	–	–

Reference: patent publication US20220324835A1 (Nurix Therapeutics, Inc., priority 2018, published 2022)
